Test results as given in patent publication US6043217A, “Amide derivative of amythiamicin” (Zaidan Hojin Biseibutsu Kagaku Kenyu Kai, priority 1996, dated 2000).

What was measured:
[1] = test system: Klebsiella pneumonia PCI 602; test: MIC, standard serial dilution method; type: cell-based; conditions: Klebsiella pneumonia PCI 602 (Table 3); Muller-Hinton agar medium, 37° C.
[2] = test system: Staphylococcus aureus MS 15009/pMS 99; test: MIC, standard serial dilution method; type: cell-based; conditions: Muller-Hinton agar medium, 37° C.
Procedure: (§1) The antibacterial activities of the amythiamicin amide derivative of the general formula (I) according to this invention are now concretely described. Compounds No. 1 to No. 11 according to this invention, which were respectively prepared in Examples 1 to 11 hereinafter given, were tested as the test compounds for their minimum inhibitory concentrations (MIC.) (μg/ml) against growth of a variety of test microorganisms by a standard serial dilution method. In the tests, the incubation medium used was Muller-Hinton agar medium and the incubation temperature was 37° C. The test results are shown as antibacterial spectra in the following Tables 2 and 3.

[3] = test system: Staphylococcus aureus MS 15009/pMS 98; test: MIC, standard serial dilution method; type: cell-based; conditions: Muller-Hinton agar medium, 37° C.
Procedure: as §1

[4] = test system: Streptococcus pneumoniae IP 692; test: MIC, standard serial dilution method; type: cell-based; conditions: Muller-Hinton agar medium, 37° C.
[5] = test system: Staphylococcus aureus M 133; test: MIC, standard serial dilution method; type: cell-based; conditions: Muller-Hinton agar medium, 37° C.
[6] = test system: Staphylococcus aureus M 126; test: MIC, standard serial dilution method; type: cell-based; conditions: Muller-Hinton agar medium, 37° C.
[7] = test system: Staphylococcus epidermidis ATCC 14990; test: MIC, standard serial dilution method; type: cell-based; conditions: Muller-Hinton agar medium, 37° C.
[8] = test system: Staphylococcus aureus MS 15027; test: MIC, standard serial dilution method; type: cell-based; conditions: Muller-Hinton agar medium, 37° C.
[9] = test system: Branhamella catarrhalis W-0500; test: MIC, standard serial dilution method; type: cell-based; conditions: Muller-Hinton agar medium, 37° C.
[10] = test system: Escherichia coli NIHJ JC-2; test: MIC, standard serial dilution method; type: cell-based; conditions: Muller-Hinton agar medium, 37° C.
[11] = test system: Haemophilus influenzae 9334; test: MIC, standard serial dilution method; type: cell-based; conditions: Muller-Hinton agar medium, 37° C.
[12] = test system: Streptococcus pyogenes Cook; test: MIC, standard serial dilution method; type: cell-based; conditions: Muller-Hinton agar medium, 37° C.
[13] = test system: Haemophilus influenzae Type b; test: MIC, standard serial dilution method; type: cell-based; conditions: Muller-Hinton agar medium, 37° C.
[14] = test system: Enterobacterium faecalis W-73; test: MIC, standard serial dilution method; type: cell-based; conditions: Muller-Hinton agar medium, 37° C.
[15] = test system: Staphylococcus aureus 209P JC-1; test: MIC, standard serial dilution method; type: cell-based; conditions: Muller-Hinton agar medium, 37° C.
[16] = test system: Micrococcus luteus ATCC 9341; test: MIC, standard serial dilution method; type: cell-based; conditions: Muller-Hinton agar medium, 37° C.
[17] = test system: Streptococcus pneumoniae Type 1; test: MIC, standard serial dilution method; type: cell-based; conditions: Muller-Hinton agar medium, 37° C.
[18] = test system: Staphylococcus aureus MS 15026; test: MIC, standard serial dilution method; type: cell-based; conditions: Muller-Hinton agar medium, 37° C.
[19] = test system: Branhamella catarrhalis W-0506; test: MIC, standard serial dilution method; type: cell-based; conditions: Muller-Hinton agar medium, 37° C.
[20] = background statement on known amythiamicins; cited from earlier work

In the case of CNC(=O)CC1NC(=O)c2csc(n2)-c2ccc(-c3nc(C(=O)N[C@H](CO)CCCNC(=N)N)cs3)nc2-c2csc(n2)-c2csc(n2)C(C(C)C)NC(=O)CNC(=O)c2csc(n2)C(C(C)C)NC(=O)c2nc1sc2C (some centres unmarked) [Compound No. 11], the “Minimum growth inhibitory concentrations (MIC.)” value [1] is reported as > 100 µg/mL, the “Minimum growth inhibitory concentrations (MIC.)” value [2] is reported as > 100 µg/mL and the “Minimum growth inhibitory concentrations (MIC.)” value [3] is reported as > 100 µg/mL. For the same compound, the “Minimum growth inhibitory concentrations (MIC.)” value [4] was > 100 µg/mL, the “Minimum growth inhibitory concentrations (MIC.)” value [5] was > 100 µg/mL and the “Minimum growth inhibitory concentrations (MIC.)” value [6] was > 100 µg/mL. For the same compound, the “Minimum growth inhibitory concentrations (MIC.)” value [7] was > 100 µg/mL, the “Minimum growth inhibitory concentrations (MIC.)” value [8] was > 100 µg/mL and the “Minimum growth inhibitory concentrations (MIC.)” value [9] was > 100 µg/mL. For the same compound, the “Minimum growth inhibitory concentrations (MIC.)” value [10] was > 100 µg/mL, the “Minimum growth inhibitory concentrations (MIC.)” value [11] was > 100 µg/mL and the “Minimum growth inhibitory concentrations (MIC.)” value [12] was > 100 µg/mL. For the same compound, the “Minimum growth inhibitory concentrations (MIC.)” value [13] was > 100 µg/mL, the “Minimum growth inhibitory concentrations (MIC.)” value [14] was > 100 µg/mL and the “Minimum growth inhibitory concentrations (MIC.)” value [15] was 6.25 µg/mL. The “Minimum growth inhibitory concentrations (MIC.)” value [16] was 100 µg/mL, the “Minimum growth inhibitory concentrations (MIC.)” value [17] was > 100 µg/mL and the “Minimum growth inhibitory concentrations (MIC.)” value [18] was > 100 µg/mL. For the same compound, the “Minimum growth inhibitory concentrations (MIC.)” value [19] was > 100 µg/mL.

In the case of CNC(=O)CC1NC(=O)c2csc(n2)-c2ccc(-c3nc(C(=O)OC)cs3)nc2-c2csc(n2)-c2csc(n2)C(C(C)C)NC(=O)CNC(=O)c2csc(n2)C(C(C)C)NC(=O)c2nc1sc2C (centres unmarked) [Amythiamicin D], the solubility in water [20] is listed as “hardly soluble in water”.

In the case of CNC(=O)CC1NC(=O)c2csc(n2)-c2ccc(-c3nc(C(=O)NCCCO)cs3)nc2-c2csc(n2)-c2csc(n2)C(C(C)C)NC(=O)CNC(=O)c2csc(n2)C(C(C)C)NC(=O)c2nc1sc2C (centres unmarked) [Compound No. 9], the “Minimum growth inhibitory concentrations (MIC.)” value [1] is reported as > 100 µg/mL, the “Minimum growth inhibitory concentrations (MIC.)” value [2] is reported as 0.39 µg/mL and the “Minimum growth inhibitory concentrations (MIC.)” value [3] is reported as 0.39 µg/mL. The “Minimum growth inhibitory concentrations (MIC.)” value [4] was > 100 µg/mL, the “Minimum growth inhibitory concentrations (MIC.)” value [5] was 0.39 µg/mL and the “Minimum growth inhibitory concentrations (MIC.)” value [6] was 0.39 µg/mL. The “Minimum growth inhibitory concentrations (MIC.)” value [7] was 0.78 µg/mL, the “Minimum growth inhibitory concentrations (MIC.)” value [8] was 0.39 µg/mL and the “Minimum growth inhibitory concentrations (MIC.)” value [9] was > 100 µg/mL. The “Minimum growth inhibitory concentrations (MIC.)” value [10] was > 100 µg/mL, the “Minimum growth inhibitory concentrations (MIC.)” value [11] was > 100 µg/mL and the “Minimum growth inhibitory concentrations (MIC.)” value [12] was > 100 µg/mL. The “Minimum growth inhibitory concentrations (MIC.)” value [13] was > 100 µg/mL, the “Minimum growth inhibitory concentrations (MIC.)” value [14] was 0.39 µg/mL and the “Minimum growth inhibitory concentrations (MIC.)” value [15] was 0.39 µg/mL. The “Minimum growth inhibitory concentrations (MIC.)” value [16] was 0.20 µg/mL, the “Minimum growth inhibitory concentrations (MIC.)” value [17] was > 100 µg/mL and the “Minimum growth inhibitory concentrations (MIC.)” value [18] was 0.39 µg/mL. For the same compound, the “Minimum growth inhibitory concentrations (MIC.)” value [19] was > 100 µg/mL.

For CNC(=O)CC1NC(=O)c2csc(n2)-c2ccc(-c3nc(C(=O)N[C@@H](CCCNC(=N)N)C(=O)O)cs3)nc2-c2csc(n2)-c2csc(n2)C(C(C)C)NC(=O)CNC(=O)c2csc(n2)C(C(C)C)NC(=O)c2nc1sc2C (some centres unmarked) [Compound No. 10], the “Minimum growth inhibitory concentrations (MIC.)” value [1] was > 100 µg/mL, the “Minimum growth inhibitory concentrations (MIC.)” value [2] was > 100 µg/mL and the “Minimum growth inhibitory concentrations (MIC.)” value [3] was > 100 µg/mL. The “Minimum growth inhibitory concentrations (MIC.)” value [4] was > 100 µg/mL, the “Minimum growth inhibitory concentrations (MIC.)” value [5] was > 100 µg/mL and the “Minimum growth inhibitory concentrations (MIC.)” value [6] was > 100 µg/mL. The “Minimum growth inhibitory concentrations (MIC.)” value [7] was > 100 µg/mL, the “Minimum growth inhibitory concentrations (MIC.)” value [8] was > 100 µg/mL and the “Minimum growth inhibitory concentrations (MIC.)” value [9] was > 100 µg/mL. For the same compound, the “Minimum growth inhibitory concentrations (MIC.)” value [10] was > 100 µg/mL, the “Minimum growth inhibitory concentrations (MIC.)” value [11] was > 100 µg/mL and the “Minimum growth inhibitory concentrations (MIC.)” value [12] was > 100 µg/mL. The “Minimum growth inhibitory concentrations (MIC.)” value [13] was > 100 µg/mL, the “Minimum growth inhibitory concentrations (MIC.)” value [14] was > 100 µg/mL and the “Minimum growth inhibitory concentrations (MIC.)” value [15] was > 100 µg/mL. For the same compound, the “Minimum growth inhibitory concentrations (MIC.)” value [16] was > 100 µg/mL, the “Minimum growth inhibitory concentrations (MIC.)” value [17] was > 100 µg/mL and the “Minimum growth inhibitory concentrations (MIC.)” value [18] was > 100 µg/mL. For the same compound, the “Minimum growth inhibitory concentrations (MIC.)” value [19] was > 100 µg/mL.

For CCCCNC(=O)c1csc(-c2ccc3c(n2)-c2csc(n2)-c2csc(n2)C(C(C)C)NC(=O)CNC(=O)c2csc(n2)C(C(C)C)NC(=O)c2nc(sc2C)C(CC(=O)NC)NC(=O)c2csc-3n2)n1 (centres unmarked) [Compound No. 8], the “Minimum growth inhibitory concentrations (MIC.)” value [1] was > 100 µg/mL, the “Minimum growth inhibitory concentrations (MIC.)” value [2] was > 100 µg/mL and the “Minimum growth inhibitory concentrations (MIC.)” value [3] was > 100 µg/mL. For the same compound, the “Minimum growth inhibitory concentrations (MIC.)” value [4] was > 100 µg/mL, the “Minimum growth inhibitory concentrations (MIC.)” value [5] was > 100 µg/mL and the “Minimum growth inhibitory concentrations (MIC.)” value [6] was > 100 µg/mL. For the same compound, the “Minimum growth inhibitory concentrations (MIC.)” value [7] was > 100 µg/mL, the “Minimum growth inhibitory concentrations (MIC.)” value [8] was > 100 µg/mL and the “Minimum growth inhibitory concentrations (MIC.)” value [9] was > 100 µg/mL. For the same compound, the “Minimum growth inhibitory concentrations (MIC.)” value [10] was > 100 µg/mL, the “Minimum growth inhibitory concentrations (MIC.)” value [11] was > 100 µg/mL and the “Minimum growth inhibitory concentrations (MIC.)” value [12] was > 100 µg/mL. The “Minimum growth inhibitory concentrations (MIC.)” value [13] was > 100 µg/mL, the “Minimum growth inhibitory concentrations (MIC.)” value [14] was > 100 µg/mL and the “Minimum growth inhibitory concentrations (MIC.)” value [15] was > 100 µg/mL. The “Minimum growth inhibitory concentrations (MIC.)” value [16] was 1.56 µg/mL, the “Minimum growth inhibitory concentrations (MIC.)” value [17] was > 100 µg/mL and the “Minimum growth inhibitory concentrations (MIC.)” value [18] was > 100 µg/mL. For the same compound, the “Minimum growth inhibitory concentrations (MIC.)” value [19] was > 100 µg/mL.
